Data taken from patent publication US8541572B2.
Where two headings read alike, the source gives them in different places.

Assays:
[1] = system: TNF-α production in LPS-stimulated human whole blood; assay: Inhibition of TNF-α production from human whole blood (hWBA); assay type: cell-based; details: LPS-stimulated human whole blood, read-out: hWBA
[2] = Area under the curve determination of plasma levels in rats (rrAUC); assay type: in vivo; details: rat, oral 10 mg/kg
[3] = IC50 for inhibition of TNF-α production
[4] = plasma 0.5-6 h post-dosing, read-out: RR AUC
[5] = plasma 0.5-6 h, read-out: RR AUC (nM · h), rapid rat AUC (rrAUC)

Row | SMILES | IC50 [1, 3] [nM] | AUC [2, 4] [µM·h] | IC50 ([1]; IC50 for TNF-α production) [nM] | AUC [2, 5] [µM·h] | IC50 ([1]; Homo sapiens, IC50 for inhibition of TNF-α production) [nM]
1 | CCN1CCN(Cc2ccc(C#C[C@]3(CN4Cc5ccc(OC)c(F)c5C4=O)NC(=O)NC3=O)cc2)CC1 [Compound 974] | 125 | 0.034 | – | – | –
2 | COc1ccc2c(c1F)C(=O)N(C[C@@]1(C#Cc3cccnc3)NC(=O)NC1=O)C2 [Compound 2267] | – | – | 134 | 2.44 | –
3 | COc1ccc2c(c1)C(=O)N(C[C@@]1(C#Cc3ccc(C4(C)NC(=O)NC4=O)c(F)c3)NC(=O)NC1=O)C2 (stereo partly drawn) [Compound 2282] | – | – | 243 | 0.042 | –
4 | CCN1CCC(C(=O)OC)(c2ccc(C#C[C@]3(CN4Cc5ccc(OC)cc5C4=O)NC(=O)NC3=O)cc2)CC1 [Compound 2276] | – | – | 288 | 2.32 | –
5 | COc1ccc2c(c1)C(=O)N(C[C@@]1(C#Cc3ccc4c(c3)CCCC43NC(=O)NC3=O)NC(=O)NC1=O)C2 (stereo partly drawn) [Compound 2312] | – | – | 137 | 0.014 | –
6 | COc1ccc2c(c1)C(=O)N(C[C@@]1(C#Cc3ccc(-c4noc(C)n4)cc3)NC(=O)NC1=O)C2 [Compound 2253] | – | – | 2430 | 4.14 | –
7 | COc1ccc2c(c1)C(=O)N(C[C@@]1(C#Cc3ccc(-c4cc[nH]n4)nc3)NC(=O)NC1=O)C2 [Compound 2235] | 231 | 0.23 | – | – | –
8 | COc1ccc2c(c1F)C(=O)N(C[C@@]1(C#Cc3ccc(C4(C(N)=O)CCN(C)CC4)cc3)NC(=O)NC1=O)C2 [Compound 1314] | 152 | 0.016 | – | – | –

More lines, now with the values ahead:

Row | IC50 [1, 3] [nM] | AUC [2, 4] [µM·h] | IC50 ([1]; IC50 for TNF-α production) [nM] | AUC [2, 5] [µM·h] | IC50 ([1]; Homo sapiens, IC50 for inhibition of TNF-α production) [nM] | SMILES
9 | – | – | 193 | 2.89 | – | COc1ccc2c(c1F)C(=O)N(C[C@@]1(C#Cc3cccnc3C)NC(=O)NC1=O)C2 [Compound 2273]
10 | – | – | 9030 | 1.07 | – | COc1ccc2c(c1)C(=O)N(C[C@@]1(C#Cc3ccc(-c4c(C)nn(C)c4C)nc3)NC(=O)NC1=O)C2 [Compound 2268]
11 | – | 1.07 | – | – | 954 | COc1ccc2c(c1)C(=O)N(C[C@@]1(C#Cc3ccc(C(=NO)c4ccc(F)cc4)cc3)NC(=O)NC1=O)C2 [Compound 2245]
12 | 186 | 3.46 | – | – | – | COc1ccc2c(c1F)C(=O)N(C[C@@]1(C#Cc3ccc4c(c3)CCC43NC(=O)NC3=O)NC(=O)NC1=O)C2 (stereo partly drawn) [Compound 2214]
